Data reported in a melting point compilation (Tetko et al.; mined from patent text by program, amines drawn as free bases though some values may be those of a salt).

Compound | melting point
CCCNC1=NS(=O)(=O)c2sc(Cl)cc2N1 | 258 to 261 °C
Cc1[nH]cnc1-c1cc(C(C)(C)C)c(O)c(C(C)(C)C)c1 | 207 to 209 °C
Cc1nc2c(N)nc3c(c2n1CC(C)C)CCCC3 | 170 to 172 °C
O=C1CCCc2snc(Cl)c21 | 84 to 85 °C
O=S(=O)(c1ccccc1)c1ccccn1 | 90 to 91 °C
Cc1ncoc1C(C)(O)c1ccco1 (stereo not drawn) | 73 to 75 °C
COc1ccccc1-n1nc(-c2c(-c3ccccc3)nn3ccccc23)ccc1=O | 163 °C
Cc1cc(Cc2cc(C(F)(F)F)cc(C(F)(F)F)c2)ccc1NC(=O)c1cccc(Cl)c1C(=O)NC(C)CS(C)=O (stereo not drawn) | 162 to 165 °C
Cc1nc2n(n1)C(N)(c1ccccc1)c1cc(Cl)ccc1-2 (stereo not drawn) | 173 to 175 °C
CC(=O)c1ccc(NC(=O)NCCCN(CCCNC(=O)Nc2ccc(C(C)=O)cc2)CCCNC(=O)Nc2ccc(C(C)=O)cc2)cc1 | 184 to 185 °C
CCCCCCCCCCCCCCCCCCS(=O)(=O)c1cc2ccccc2c(N=Nc2ccc(OC)cc2)c1O | 117 to 119 °C
Cn1c(C(F)(F)F)cc(=O)n(-c2c(O)cc(F)cc2F)c1=O | 195 to 196 °C
C=CCC(O)CCCCCCCCCCCCCCC (stereo not drawn) | 37 to 39.5 °C
COc1cccc(OC)c1C(=O)P(=O)(C(=O)c1c(OC)cccc1OC)c1ccccc1 | 155 °C
CN(C)c1ccc(-c2cc(N)n[nH]2)cc1 | 169 to 170 °C
CCCNC(=O)NC1CCCCC1 | 108 to 109 °C
COC(=O)c1ccc(OC(=O)Cl)cc1 | 52 to 53 °C
Cc1noc(NS(=O)(=O)c2cccc3nsnc23)c1Br | 177 to 179 °C
CC(C)OC(=O)C(O)C(CC1CCCCC1)NC(=O)C(Cc1c[nH]cn1)NC(=O)C(CCOc1ccc(F)cc1)Cc1cccc2ccccc12 (mixture of isomers) | 87 to 91 °C
COc1cccc(Cc2cc(Br)ccc2O)c1 | 97 to 102 °C
COc1c(C)cnc(CS(=O)c2nc3ncccc3[nH]2)c1C (stereo not drawn) | 169 to 170 °C

Compound | melting point
CN(CCC#N)C(=O)c1nc(Cl)c(Cl)[nH]1 | 184 °C
NC(=S)c1cn(COC(CO)CO)c2ncnc(N)c12 | 180 to 181 °C
CCOC(=O)c1cn2c3c(c(F)c(Cl)cc3c1=O)OCC2C (stereo not drawn) | 263 to 264 °C
CC(C)N(C(=O)COc1nnc(C(F)F)s1)c1cccc(Cl)c1 | 98 °C
c1cc(-c2cncnc2)cc(-n2cnc3cc(-n4cccc4)ccc32)c1 | 197 to 198 °C
FC(=C(Cl)Cl)c1ccc(-c2ccccc2)s1 | 67 to 68.5 °C
CCc1c(CO)nc(-c2ccc(OC)c(OC)c2)c2cc(OC)c(OC)cc12 | 160 to 163 °C
O=C(O)c1ccc(C(F)(F)F)nc1C(F)(F)F | 102 to 104 °C
Cc1cn(-c2ccc(N3C[C@H](CO)OC3=O)cc2F)nn1 | 190 to 192 °C
COc1ccc2nc(S(=O)Cc3nccc(OCC(F)(F)F)c3OC)[nH]c2c1 (stereo not drawn) | 36 to 46 °C
C#CC(=O)NCCCCC | 59 to 60.2 °C
CCOC(=O)c1c(CSc2ccccc2)n(C)c2cc(Br)c(O)c(CN(C)C)c12 | 127 to 128 °C
Cc1nnc(NC(=O)C2c3ccccc3Oc3ccccc32)o1 | 261 to 263 °C
CC(Oc1ccc2c(c1)C(O)C(Oc1cccnc1)CO2)c1ccc2ccccc2n1 (stereo not drawn) | 75 to 83 °C
COc1ccc(-c2c(-c3ccccc3)nc3n2Cc2ccccc2C3)cc1 | 183 to 185 °C
CC(C)(C)c1cc(CCCBr)cc(C(C)(C)C)c1O | 52 to 54 °C
O=C1c2cccc3cc4ccccc4c(c23)C(=O)N1CCCNCCNCCCN1C(=O)c2cccc3cc4ccccc4c(c23)C1=O | 180 °C
Cc1cc(-c2cc(C(F)(F)F)n3cnc(-c4ccncc4)c3n2)ccc1Cl | 254 °C
COc1cc(C)c2c(Cl)c(OC)ccc2n1 | 97 to 100 °C
CCCc1c(OCc2cccc(C(=O)NC(C)CCCc3cccnc3)c2)ccc(C(C)=O)c1O (stereo not drawn) | 115 to 118 °C
CNC(=O)c1cc2ccccc2c(-c2ccc(I)cc2)n1 | 163 to 164 °C

Compound | melting point
Cc1ccc(C(=O)Nc2ccc(S(N)(=O)=O)cc2)c(SSc2cc(C)ccc2C(=O)Nc2ccc(S(N)(=O)=O)cc2)c1 | 319 to 320 °C
CC(=O)NCCCCC(=O)OC1c2ccccc2C(=O)N1c1ccc2ccc(Cl)nc2n1 (stereo not drawn) | 185 °C
O=C1c2ccccc2C(=O)N1CCCCSc1ccncc1 | 106 to 108 °C
O=c1cc(-c2ccc(O)cc2)oc2ccc(CO)cc12 | 246 to 247 °C
CC(C)CNc1nc(-c2ccccc2)c(Br)n2ccnc12 | 138 °C
Cc1nc2scc(C)n2c1S(N)(=O)=O | 177 to 178 °C
CS(=O)(=O)c1cccc(NC(=O)c2cnn3c(C(F)(F)F)cc(-c4ccc(C(F)(F)F)c(OCC(F)(F)F)c4)nc23)c1 | 227 °C
O=c1cc(SCc2ccc(O)cc2)oc2cc(O)cc(O)c12 | 222 to 225 °C
COc1cc(N)c(Cl)cc1C(=O)N(C)OC | 134 to 135 °C
CCCCCCCCCCCc1ccc(CC(=O)O)cc1 | 83 to 84 °C
Cc1nc2c(s1)CCN(C(=O)c1ccc(NC(=O)c3ccccc3-c3ccccc3)cc1)c1ccccc1-2 | 165 to 168 °C
COC(=O)Nc1ccc(OCc2nc3ccccc3s2)c(Cl)c1 | 133 to 135 °C
Cn1c(C(F)(F)F)c(I)c(=O)n(C)c1=O | 149 to 151 °C
OC1(C(Br)Br)O[C@H](COCc2ccccc2)[C@@H](OCc2ccccc2)[C@H](OCc2ccccc2)[C@H]1OCc1ccccc1 (stereo partly drawn) | 77 to 78 °C
CC(C)c1cc2nc(N)[nH]c(=O)c2cc1-c1ccc(Cl)cc1 | 326 to 330 °C
CNC(=O)c1ccc(C)c(-n2c(C)cc(OCc3ccccc3CNC(=O)Nc3cc(C(C)(C)C)nn3-c3ccc(O)c(Cl)c3)c(Cl)c2=O)c1 | 201 to 203 °C
CSc1nc(C)c(Cc2ccc(Cl)cc2)c(=O)[nH]1 | 248 to 251 °C
CC(C)(C)CCN1C(=O)C(NC(=O)Oc2ccccc2)C(=O)N(c2ccccc2F)c2ccccc21 (stereo not drawn) | 199 to 200 °C
COc1cc(NC2CCCC2)n2nc(-c3ccc(F)cc3)c(-c3ccnc(NC4CCCC4)n3)c2c1 | 167 to 169 °C

Further lines, results first:

melting point | Compound
178 °C | CCOCCn1c(NC2CCN(C(=O)c3cc(C(F)(F)F)cc(C(F)(F)F)c3)C(Cc3ccccc3)C2)nc2ccccc21 (stereo not drawn)
176 to 178 °C | Brc1cnc2c(c1)ncn2-c1cccc(CN2CCOCC2)c1
138 °C | Nc1cccc(C(=O)NS(=O)(=O)c2ccccc2)c1
181 to 182 °C | Cc1ccccc1NC(=NC#N)NC(NC(=O)Cc1ccc(Cl)cc1)C(C)(C)C (stereo not drawn)
> 300 °C | COc1ccc(-c2[nH]nc3c2C(=O)c2c(NC(=O)CN4CCC(N)CC4)cccc2-3)cc1
187 to 192 °C | C[C@@H](Nc1ncnc2cc(OCCO)c([N+](=O)[O-])cc12)c1ccccc1
47 to 48 °C | N#CCCCCC(=O)c1ccc(Br)cc1
215 °C | CCC1(c2ccc(Cl)cc2)OCc2c1cnc(C)c2O (stereo not drawn)
185 to 187 °C | CC(C)NC(=O)[C@H](C)C[C@H](O)[C@H](CC1CCCCC1)NC(=O)[C@H](Cc1cscn1)NC(=O)OC(C)(C)C
128 to 130 °C | Cc1cc(C)c2cccc(OCc3c(Cl)ccc(S(=O)(=O)N4CCC[C@H]4C(=O)NCc4ccc(C=NN)cn4)c3Cl)c2n1
118 °C | COc1ccc(C(CSc2ccccc2N)C(=O)O)cc1 (stereo not drawn)
234 °C | CC1=C(C(=O)OCc2ccccc2)C(c2ccccc2Cl)c2c[nH]nc2N1 (stereo not drawn)
68 to 70 °C | O=[N+]([O-])c1c(CBr)cccc1Oc1ccccc1Cl
169 to 171 °C | CC(=O)OC1CSC(Oc2cccc(-c3ccncc3Cl)c2)C(OC(C)=O)C1OC(C)=O (stereo not drawn)
79 to 89 °C | CN1CC(CCCN2CCN(c3ncccn3)CC2)OC1=O (stereo not drawn)
165 to 167 °C | CCCCCCCNC(=O)Nc1ccc(O)cc1C(=O)NCC1CCN(C(c2ccccc2)c2ccccc2)CC1
70 to 73.5 °C | CN1CS(=O)c2ccccc21 (stereo not drawn)
91 to 93 °C | CCSc1sc(C(=O)N2CCCC2)c2c1-c1oncc1C(C)(C)C2
171 to 176 °C | CC(C(=O)O)c1cccc2cn[nH]c12 (stereo not drawn)

melting point | Compound
74 to 75 °C | CCOC(=O)C1(CBr)C=CC=CC1S(=O)(=O)NC(C)(C)C (stereo not drawn)
184 to 185 °C | O=C(Nc1cccnn1)N1CCN(c2nccc(-c3ccc(F)cc3F)n2)CC1
225 °C | Cc1ncsc1CCNC(=O)c1cnc(N2CCN(C(=O)c3c(-c4ccccc4)n(C)c4cccnc34)CC2)cn1
60 to 62 °C | CC(C)(C)OC(=O)N1CCC(c2ccc([N+](=O)[O-])cc2)CC1
95 to 96 °C | CCCCCCNC(=S)NC(=O)c1ccc(C#N)cc1
192 to 198 °C | CC1Sc2c(C(=O)O)c(=O)c3cc(F)c(N4CCOCC4)cc3n21 (stereo not drawn)
237 to 238 °C | Cc1ccc(S(=O)(=O)NC(=O)/C=C/c2c(C)nn(C)c2-n2ccc3cccnc32)cc1
164 to 165 °C | O=C1Nc2ccccc2C12CCCCC2
328 °C | N#Cc1c(N2CCN(C(=O)c3ccco3)CC2)c2cc(Cl)cnc2n(CC(=O)c2ccccc2)c1=O
115 to 117 °C | CCOC(=O)C1=C(C)NC(CSc2ncccn2)=C(C(=O)OCC)C1c1cccc([N+](=O)[O-])c1 (stereo not drawn)
132 to 133 °C | CC(C)(C)OC(=O)N[C@@H](Cc1ccccc1)C(=O)N[C@H]1CCOC1=O
164 to 165 °C | O=C(c1ccccc1)c1cccc2c1CCCC2C(=O)O (stereo not drawn)
215 to 216 °C | COc1ccc(-c2sc3c(c2C)c(=O)c(C#N)cn3Cc2ccccc2F)cc1
232 to 234 °C | CCn1cc(C(=O)O)c(=O)c2cc(F)c(N3C[C@@H](N)[C@@H](C)C3)c(F)c21 (relative stereo)
144 to 148 °C | CCOC(=O)c1c(N2CCN(C)CC2)c2ccccc2n(C)c1=O
100 to 102 °C | Cc1cccnc1C1CC(C)(C)Oc2ccccc21 (stereo not drawn)
114 to 120 °C | Cc1cccc(CN2CCN(C(c3ccc(Cl)cc3)c3cccc(OCC(=O)O)c3)CC2)c1 (stereo not drawn)
193 °C | CC(C)(C)CC(=O)N[C@H]1CC[C@H](CCN2CCC(c3cccc4c3CCO4)CC2)CC1
